Assay results published in ChEMBL document CHEMBL5500384, “New synergistic benzoquinone scaffolds as inhibitors of mycobacterial cytochrome bc1 complex to treat multi-drug resistant tuberculosis” (Eur J Med Chem, 2024).
Values after ≈ are worked out from the molar mass of the structure shown.

How the values were obtained:
[1] = test system: Mycobacterium tuberculosis; assay: Antitubercular activity against Mycobacterium tuberculosis H37Rv incubated for 5 days by microtiter plate method; type: functional; details: 120 h, time 5 day
[2] = Hepatotoxicity in Albino mouse assessed as change in portal tracks at 50 to 2000 mg/kg, po measured after 14 days; type: toxicity, organism-based; details: in vivo, 336 h, dose 50-2000 mg/kg, time 14 day
[3] = Acute toxicity in Albino mouse assessed as change in SGOT count at 50 to 2000 mg/kg, po measured after 14 days (reference value: 42 IU/L); type: organism-based; details: in vivo, 336 h, dose 50-2000 mg/kg, time 14 day
[4] = Acute toxicity in Albino mouse assessed as change in ALP level at 50 to 2000 mg/kg, po measured after 14 days (reference value: 28 IU/L); type: organism-based; details: in vivo, 336 h, dose 50-2000 mg/kg, time 14 day
[5] = Acute toxicity in Albino mouse assessed as change in monocytes at 50 to 2000 mg/kg, po measured after 14 days (reference value: 1%); type: organism-based; details: in vivo, 336 h, dose 50-2000 mg/kg, time 14 day
[6] = Hepatotoxicity in Albino mouse assessed as change in central vein at 50 to 2000 mg/kg, po measured after 14 days; type: toxicity, organism-based; details: in vivo, 336 h, dose 50-2000 mg/kg, time 14 day
[7] = Hepatotoxicity in Albino mouse assessed as change in bile duct at 50 to 2000 mg/kg, po measured after 14 days; type: toxicity, organism-based, Liver; details: in vivo, 336 h, dose 50-2000 mg/kg, time 14 day
[8] = Acute toxicity in Albino mouse assessed as change in lymphocytes at 50 to 2000 mg/kg, po measured after 14 days (reference value: 21%); type: organism-based; details: in vivo, 336 h, dose 50-2000 mg/kg, time 14 day
[9] = Acute toxicity in Albino mouse assessed as change in SGPT count at 50 to 2000 mg/kg, po measured after 14 days (reference value: 52 IU/L); type: organism-based; details: in vivo, 336 h, dose 50-2000 mg/kg, time 14 day
[10] = Acute toxicity in Albino mouse assessed as change in total leucocyte count at 50 to 2000 mg/kg, po measured after 14 days (reference value: 7400 mm3); type: organism-based; details: in vivo, 336 h, dose 50-2000 mg/kg, time 14 day
[11] = Cytotoxicity against african green monkey Vero cells assessed as cell viability at 3.125 ug/ml by MTT assay; type: toxicity, cell-based; details: chlorocebus sabaeus, at 3.125 µg/mL, read-out: Activity
[12] = Acute toxicity in Albino mouse assessed as change in platelet count at 50 to 2000 mg/kg, po measured after 14 days (reference value: 3.24 mm3); type: organism-based; design: unit not given here; details: in vivo, 336 h, dose 50-2000 mg/kg, time 14 day
[13] = Cytotoxicity against african green monkey Vero cells by MTT assay; type: toxicity, cell-based; details: chlorocebus sabaeus
[14] = Renal toxicity in Albino mouse assessed as change in renal tubules at 50 to 2000 mg/kg, po measured after 14 days; type: organism-based; details: in vivo, 336 h, dose 50-2000 mg/kg, time 14 day
[15] = Acute toxicity in Albino mouse assessed as mortality at 300 mg/kg, po after 5 to 8 hrs; type: organism-based; details: in vivo, time 5-8 hrs
[16] = Renal toxicity in Albino mouse assessed as change in renal corpuscles at 50 to 2000 mg/kg, po measured after 14 days; type: organism-based; details: in vivo, 336 h, dose 50-2000 mg/kg, time 14 day
[17] = Hepatotoxicity in Albino mouse assessed as change in portal vein at 50 to 2000 mg/kg, po measured after 14 days; type: toxicity, organism-based; details: in vivo, 336 h, dose 50-2000 mg/kg, time 14 day
[18] = Acute toxicity in Albino mouse assessed as change in eosinophils at 50 to 2000 mg/kg, po measured after 14 days (reference value: 3%); type: organism-based; details: in vivo, 336 h, dose 50-2000 mg/kg, time 14 day
[19] = Renal toxicity in Albino mouse assessed as change in tubular capillaries at 50 to 2000 mg/kg, po measured after 14 days; type: organism-based; details: in vivo, 336 h, dose 50-2000 mg/kg, time 14 day
[20] = Acute toxicity in Albino mouse assessed as mortality at 2000 mg/kg, po after 2 to 4 hrs; type: organism-based; details: in vivo, time 2-4 hrs
[21] = Pulmonary toxicity in Albino mouse assessed as appearance of cilia at 50 to 2000 mg/kg, po measured after 14 days; type: organism-based; details: in vivo, 336 h, dose 50-2000 mg/kg, time 14 day
[22] = Acute toxicity in Albino mouse assessed as change in serum urea level at 50 to 2000 mg/kg, po measured after 14 days (reference value: 46 mg/dl); type: organism-based; details: in vivo, 336 h, dose 50-2000 mg/kg, time 14 day
[23] = Pulmonary toxicity in Albino mouse assessed as change in squamous pneumocytes at 50 to 2000 mg/kg, po measured after 14 days; type: organism-based; details: in vivo, 336 h, dose 50-2000 mg/kg, time 14 day
[24] = Renal toxicity in Albino mouse assessed as change in distal convoluted tubules at 50 to 2000 mg/kg, po measured after 14 days; type: organism-based; details: in vivo, 336 h, dose 50-2000 mg/kg, time 14 day
[25] = Renal toxicity in Albino mouse assessed as structural absorbability abnormalities at 50 to 2000 mg/kg, po measured after 14 days; type: organism-based; details: in vivo, 336 h, dose 50-2000 mg/kg, time 14 day
[26] = Renal toxicity in Albino mouse assessed as extravasation of RBC at 50 to 2000 mg/kg, po measured after 14 days; type: organism-based, Erythrocyte; details: in vivo, 336 h, dose 50-2000 mg/kg, time 14 day
[27] = Cytotoxicity against african green monkey Vero cells assessed as cell viability at 25 ug/ml by MTT assay; type: toxicity, cell-based; details: chlorocebus sabaeus, at 25 µg/mL, read-out: Activity
[28] = Acute toxicity in po dosed Albino mouse assessed as mortality after 14 days; type: organism-based; details: in vivo, time 14 day
[29] = Pulmonary toxicity in Albino mouse assessed as change in alveolar sacs at 50 to 2000 mg/kg, po measured after 14 days; type: organism-based; details: in vivo, 336 h, dose 50-2000 mg/kg, time 14 day
[30] = Pulmonary toxicity in Albino mouse assessed as change in bronchi structure at 50 to 2000 mg/kg, po measured after 14 days; type: organism-based; details: in vivo, 336 h, dose 50-2000 mg/kg, time 14 day
[31] = Acute toxicity in Albino mouse assessed as change in LDH level at 50 to 2000 mg/kg, po measured after 14 days (reference value: 1052 IU/L); type: organism-based; details: in vivo, 336 h, dose 50-2000 mg/kg, time 14 day
[32] = Acute toxicity in Albino mouse assessed as change in hemoglobin level at 50 to 2000 mg/kg, po measured after 14 days (reference value: 12.8 g/dl); type: organism-based; details: in vivo, 336 h, dose 50-2000 mg/kg, time 14 day
[33] = Acute toxicity in Albino mouse assessed as change in neutrophils at 50 to 2000 mg/kg, po measured after 14 days (reference value: 75%); type: organism-based; details: in vivo, 336 h, dose 50-2000 mg/kg, time 14 day
[34] = Pulmonary toxicity in Albino mouse assessed as appearance of goblet cells at 50 to 2000 mg/kg, po measured after 14 days; type: organism-based; details: in vivo, 336 h, dose 50-2000 mg/kg, time 14 day
[35] = Cytotoxicity against african green monkey Vero cells assessed as cell viability at 100 ug/ml by MTT assay; type: toxicity, cell-based; details: chlorocebus sabaeus, at 100 µg/mL, read-out: Activity
[36] = Pulmonary toxicity in Albino mouse assessed as change in alveoli structure at 50 to 2000 mg/kg, po measured after 14 days; type: organism-based; details: in vivo, 336 h, dose 50-2000 mg/kg, time 14 day
[37] = Acute toxicity in Albino mouse assessed as change in serum creatine level at 50 to 2000 mg/kg, po measured after 14 days (reference value: 0.9 mg/dl); type: organism-based; details: in vivo, 336 h, dose 50-2000 mg/kg, time 14 day
[38] = Renal toxicity in Albino mouse assessed as change in proximal convoluted tubules at 50 to 2000 mg/kg, po measured after 14 days; type: organism-based; details: in vivo, 336 h, dose 50-2000 mg/kg, time 14 day
[39] = Acute toxicity in Albino mouse assessed as mortality at 50 mg/kg, po after 14 days; type: organism-based; details: in vivo, 336 h, time 14 day
[40] = Renal toxicity in Albino mouse assessed as change in Bowman's capsule at 50 to 2000 mg/kg, po measured after 14 days; type: organism-based; details: in vivo, 336 h, dose 50-2000 mg/kg, time 14 day
[41] = Cytotoxicity against african green monkey Vero cells assessed as cell viability at 6.25 ug/ml by MTT assay; type: toxicity, cell-based; details: chlorocebus sabaeus, at 6.25 µg/mL, read-out: Activity
[42] = Cytotoxicity against african green monkey Vero cells assessed as cell viability at 12.5 ug/ml by MTT assay; type: toxicity, cell-based; details: chlorocebus sabaeus, at 12.5 µg/mL, read-out: Activity
[43] = Hepatotoxicity in Albino mouse assessed as change in hepatic artery at 50 to 2000 mg/kg, po measured after 14 days; type: toxicity, organism-based, Liver; details: in vivo, 336 h, dose 50-2000 mg/kg, time 14 day
[44] = Hepatotoxicity in Albino mouse assessed as change in hepatocytes at 50 to 2000 mg/kg, po measured after 14 days; type: toxicity, organism-based; details: in vivo, 336 h, dose 50-2000 mg/kg, time 14 day
[45] = Acute toxicity in Albino mouse assessed as change in ESR at 50 to 2000 mg/kg, po measured after 14 days (reference value: 10 millimeter); type: organism-based; details: in vivo, 336 h, dose 50-2000 mg/kg, time 14 day
[46] = Cytotoxicity against african green monkey Vero cells assessed as cell viability at 50 ug/ml by MTT assay; type: toxicity, cell-based; details: chlorocebus sabaeus, at 50 µg/mL, read-out: Activity
[47] = Acute toxicity in Albino mouse assessed as change in RBC count measured per million cells at 50 to 2000 mg/kg, po measured after 14 days (reference value: 9.15 microL); type: organism-based, Erythrocyte; details: in vivo, 336 h, dose 50-2000 mg/kg, time 14 day

O=C1C(Cl)=C(N2C(=O)C(Cl)C2c2ccc(Cl)cc2)C(=O)c2ccccc21 (configuration not stated)
MIC [1]: 7.69 µM (≈ 3.13 µg/mL)
Activity [2]: Non-Toxic
Activity [3]: 136.54 IU/L
Activity [4]: 433.93 IU/L
Activity [5]: 1%
Activity [6]: Non-Toxic
Activity [7]: Non-Toxic
Activity [8]: 44%
Activity [9]: 42.09 IU/L
Activity [10]: 9400 mm3
viability at 3.125 ug/ml [11]: 100%
Activity [12]: 6.1
Activity [13]: Dose-Dependent Effect
Activity [14]: Non-Toxic
Activity [15]: Toxic
Activity [16]: Non-Toxic
Activity [17]: Non-Toxic
Activity [18]: 4%
Activity [19]: Non-Toxic
Activity [20]: Toxic
Activity [21]: Non-Toxic
Activity [22]: 56.19 mg/dL
Activity [23]: Non-Toxic
Activity [24]: Non-Toxic
Activity [25]: Non-Toxic
Activity [26]: Non-Toxic
viability at 25 ug/ml [27]: 38%
LD50 at 336 h [28]: 50 mg/kg
Activity [29]: Non-Toxic
Activity [30]: Non-Toxic
Activity [31]: 134.22 IU/L
Activity [32]: 13.1 g/dL
Activity [33]: 70%
Activity [34]: Non-Toxic
viability at 100 ug/ml [35]: 8.6%
Activity [36]: Non-Toxic
Activity [37]: 0.41 mg/dL
Activity [38]: Non-Toxic
Activity [39]: Non-Toxic
Activity [40]: Non-Toxic
viability at 6.25 ug/ml [41]: 100%
viability at 12.5 ug/ml [42]: 69.1%
Activity [43]: Non-Toxic
Activity [44]: Non-Toxic
Activity [45]: 14 millimeter/hr
viability at 50 ug/ml [46]: 24.2%
Activity [47]: 9.6
